Experimental data: US6696466B1, “Methods of treating select neuronal inflammatory disorders using hydroxyalkylquinolines” (priority 2000, dated 2004)
Several values for one entry are separate records, joined by “and”; a condition that tells them apart may be missing. Equal entries are not always repeated. Entries after “also recorded” stand apart in the source; their conditions may differ.

How the values were obtained:
Assay type in all cases: in vivo, human
[1] = tested on: Herpes simplex I and II (HSV I and II); test: Treatment and suppression of cold sores in patients; settings: for time to resolution of cold sore: Singulair resumed vs the patient's previous sores treated with antivirals
Method: Patient had recently discontinued use of Singulair® as a treatment for asthma. […] The cold sore resolved in three days after treatment with Singulair® was resumed. The rate of resolution was faster than the resolution of previous sores which were treated with antiviral treatments such as those marketed under the trademarks Zovirax® or Famvir® (approximately seven to ten days). During the subsequent two years, patient took Singulair® on a daily basis (10 mg, twice a day).
No cold sore was present at the time therapy was started. […] Within five days of termination of treatment, a cold sore developed.

[2] = tested on: natural graying process of scalp hair; test: Inhibition of graying of scalp hair in a patient; settings: 10 mg per day, taken orally, two years and four months continuous; single patient with graying of temple regions
From the text: Patient had noted the onset of graying of the temple regions of their hair.

thoracic outlet syndrome = test: Treatment of a patient with thoracic outlet syndrome; settings: 10 mg per day, taken orally, four weeks; single patient
Method: Patient was treated with Singulair® at 10 mg per day taken orally. […] No further treatment was required.

cubital tunnel syndrome = test: Treatment of a patient with cubital tunnel syndrome; settings: 10 mg daily, taken orally, four weeks; single patient, prior NSAIDs and splints failed
Method: Patient was a golfer who experienced symptoms of cubital tunnel syndrome. […] Patient was treated with Singulair® at 10 mg daily, taken orally. […] No further treatment was required despite their return to their regular golfing activity.

carpal tunnel syndrome = test: Treatment of patients with carpal tunnel syndrome; settings: for carpal tunnel symptoms, response to treatment: 10 mg per day, taken orally
Method: A carpenter who was experiencing the symptoms of carpal tunnel syndrome was treated with 10 mg of Singulair® per day, taken orally, for four weeks. They continued to perform their daily occupational activities throughout the period of treatment. […] Patient was then treated for short courses of 10 mg of Singulair® per day, whenever symptoms were present, until symptoms subsided.
A patient who worked as a billing clerk had carpal tunnel symptoms which had not responded to non-surgical methods of treatment. Patient was treated with Singulair® at 10 mg daily, taken orally.
A patient who works as a data entry clerk, experienced severe carpal tunnel symptoms. They ceased their occupational activities and began treatment with Singulair® at 10 mg per day, taken orally.
Patient was an insurance clerk who experienced severe carpal tunnel symptoms which had not abated, even after carpal tunnel decompression surgery. For years following surgery, they had experienced severe carpal tunnel symptoms.
Patient was an assembly line worker at an automobile production facility who was experiencing symptoms of carpal tunnel syndrome was treated with 10 mg of Singulair® per day taken orally. […] They required continuous treatment with 10 mg of Singulair® per day taken orally to maintain remission of their symptoms.

[3] = tested on: post-herpetic neuralgia due to a latent Herpes infection; test: Treatment of post-herpetic neuralgia in patients; settings: 10 mg per day, taken orally; single patient, neuralgia developed despite initial anti-viral agents
Method: (§1) Patient had post-herpetic neuralgia due to a latent Herpes infection. Neuralgia developed despite initial treatment with anti-viral agents as per standard treatment recommendations. Patient began treatment with Singulair® (10 mg per day, taken orally). The post-herpetic neuralgia resolved in ten days. No further treatment was required.
as §1, with “had postherpetic” for “had post-herpetic”, “in 14” for “in ten”

Compound | time to resolution of cold sore ([1]; single patient) | progression of graying of scalp hair [2] | cold sores under continuous daily treatment ([1]; 10 mg per day orally, ten months, patient with history of average two cold sores per month) | development of new cold sore under daily treatment ([1]; 10 mg, twice a day, two years, high ultraviolet light exposure, single patient) | time to cold sore after termination of treatment ([1]; after ten months of treatment, same patient) | cold sores after resumption of treatment ([1]; thirteen months after resumption of treatment, same patient) | thoracic outlet syndrome symptoms, response to treatment (thoracic outlet syndrome) | cubital tunnel symptoms, response to treatment (cubital tunnel syndrome) | carpal tunnel symptoms, response to treatment (carpal tunnel syndrome; four weeks, single patient) | carpal tunnel symptoms, response to treatment (carpal tunnel syndrome; six weeks, single patient, occupational activities continued) | carpal tunnel symptoms after cessation of treatment (carpal tunnel syndrome; after treatment was stopped, single patient) | carpal tunnel symptoms at follow-up (carpal tunnel syndrome; follow-up as in each example: forty weeks (Ex. 2), recheck two weeks after return to work on treatment (Ex. 3), continuing treatment (Ex. 4)) | carpal tunnel symptoms on resumption of treatment (carpal tunnel syndrome; treatment resumed after relapse, single patient) | time to resolution of post-herpetic neuralgia [3]
Nc1nc2c(ncn2COCCO)c(=O)[nH]1 [Zovirax®] | seven to ten |  |  |  |  |  |  |  |  |  |  |  |  | 
CC(C)(O)c1ccccc1CC[C@@H](SCC1(CC(=O)O)CC1)c1cccc(C=Cc2ccc3ccc(Cl)cc3n2)c1 [Singulair®, 1-(((1(R)-(3-(2-(7-chloro-2-quinolinyl)ethenyl)phenyl)-3-(2-(2-hydroxy-2-propyl)phenyl)propyl)thio)methyl)cyclopropaneacetic acid] | three | No progression of the graying process | remained free of cold sores | no new sore developed | five | remained free of cold sores | symptoms had completely resolved | Symptoms were entirely abated | complete remission of symptoms; also recorded: symptoms had completely resolved | complete resolution of their carpal tunnel symptoms; also recorded: symptoms abated | the symptoms recurred; also recorded: remained symptom-free thereafter; also recorded: symptoms rapidly returned | remains symptom-free | Symptoms abated | ten and 14 days
CC(=O)OCC(CCn1cnc2cnc(N)nc21)COC(C)=O [Famvir®] | seven to ten |  |  |  |  |  |  |  |  |  |  |  |  | 
